Source: patent US12185723B2, “Herbicidally active 3-phenylisoxazoline-5-carboxamides of s-containing cyclopentenylcarboxylic esters” (Bayer Aktiengesellschaft, priority 2019, dated 2025)

What was measured:
Format in all cases: in vivo
[1] = system: Avena fatua; assay: Post-emergence herbicidal action against AVEFA; conditions: visual rating about 3 weeks after treatment
Procedure, shortened: (§1)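 Sow in sandy loam; greenhouse; spray at one-leaf stage (2–3 wk after sowing). WP/EC formulation, 0.5% additive, 600 l/ha water. Visual rating ~3 wk later vs untreated; 100% = dead.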

[2] = system: Polygonum convolvulus; assay: Post-emergence herbicidal action against POLCO
Procedure, shortened: as §1

[3] = system: Matricaria inodora; assay: Post-emergence herbicidal action against MATIN; conditions: 20 g a.i./ha
Description: (§2) Post-Emergence Herbicidal Action Against Harmful Plants and Crop Plant Compatibility Seeds of monocotyledonous and dicotyledonous weeds and crop plants are placed in sandy loam in plastic or wood-fibre pots, covered with soil and cultivated in a greenhouse under controlled growth conditions. 2 to 3 weeks after sowing, the test plants are treated at the one-leaf stage. The compounds of the invention, formulated in the form of wettable powders (WP) or as emulsion concentrates (EC), are then sprayed onto the green parts of the plants as aqueous suspension or emulsion with addition of 0.5% additive at a water application rate of 600 l/ha (converted). After the test plants have been kept in the greenhouse under optimum growth conditions for about 3 weeks, the activity of the preparations is rated visually in comparison to untreated controls. For example, 100% activity=the plants have died, 0% activity=like control plants. [table]

[4] = system: Veronica persica; assay: Post-emergence herbicidal action against VERPE
Procedure, shortened: as §1

[5] = system: Lolium rigidum; assay: Post-emergence herbicidal action against LOLRI; conditions: visual rating about 3 weeks after treatment
Procedure, shortened: as §1

[6] = system: Abutilon theophrasti; assay: Post-emergence herbicidal action against ABUTH; conditions: 20 g a.i./ha, visual rating about 3 weeks after treatment
Procedure, shortened: as §1

[7] = system: Setaria viridis; assay: Post-emergence herbicidal action against SETVI; conditions: visual rating about 3 weeks after treatment
Procedure, shortened: as §1

[8] = system: Echinochloa crus-galli; assay: Post-emergence herbicidal action against ECHCG; conditions: visual rating about 3 weeks after treatment
Procedure, shortened: as §1

[9] = system: Amaranthus retroflexus; assay: Post-emergence herbicidal action against AMARE
Procedure, shortened: as §1

[10] = system: Pharbitis purpurea; assay: Post-emergence herbicidal action against PHBPU
Procedure, shortened: as §1

[11] = system: DIGSA; assay: Post-emergence herbicidal action against DIGSA; conditions: visual rating about 3 weeks after treatment
Procedure, shortened: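 Greenhouse-grown plants sprayed at one-leaf stage (2–3 weeks after sowing) with WP or EC formulations as aqueous suspension/emulsion plus 0.5% additive, 600 l/ha water. Activity rated visually about 3 weeks later versus untreated controls, 100% = plants dead, 0% = like controls.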

[12] = system: Alopecurus myosuroides; assay: Post-emergence herbicidal action against ALOMY; conditions: visual rating about 3 weeks after treatment
Procedure, shortened: as §1

[13] = system: Viola tricolor; assay: Post-emergence herbicidal action against VIOTR
Description: as §2

[14] = system: Stellaria media; assay: Post-emergence herbicidal action against STEME
Description: as §2

[15] = system: Hordeum murinum; assay: Post-emergence herbicidal action against HORMU
Description: as §2

CCSCCOC(=O)C1C=CC(NC(=O)C2(C)CC(c3cc(F)cc(F)c3)=NO2)C1 (stereo not shown) [Example I-02]
Herbicidal action against [%] AVEFA ([1]; 20 g a.i./ha): 90%
Herbicidal action against [%] POLCO ([2]; 20 g a.i./ha): 90%
Herbicidal action against [%] MATIN [3]: 80%
Herbicidal action against [%] VERPE ([4]; 20 g a.i./ha): 90%
Herbicidal action against [%] LOLRI ([5]; 20 g a.i./ha): 90%
Herbicidal action against [%] ABUTH [6]: 90%
Herbicidal action against [%] SETVI ([7]; 20 g a.i./ha): 90%
Herbicidal action against [%] ECHCG ([8]; 20 g a.i./ha): 90%
Herbicidal action against [%] AMARE ([9]; 20 g a.i./ha): 90%
Herbicidal action against [%] PHBPU ([10]; 20 g a.i./ha): 80%
Herbicidal action against [%] DIGSA ([11]; 20 g a.i./ha): 90%
Herbicidal action against [%] ALOMY ([12]; 20 g a.i./ha): 100%

CC1(C(=O)NC2C=CC(C(=O)OCCSCc3ccccc3)C2)CC(c2cc(F)cc(F)c2)=NO1 (stereo not shown) [Example I-07]
Herbicidal action against [%] AVEFA ([1]; 20 g a.i./ha): 90%
Herbicidal action against [%] POLCO ([2]; 20 g a.i./ha): 90%
Herbicidal action against [%] MATIN [3]: 80%
Herbicidal action against [%] VERPE ([4]; 20 g a.i./ha): 90%
Herbicidal action against [%] LOLRI ([5]; 20 g a.i./ha): 90%
Herbicidal action against [%] ABUTH [6]: 80%
Herbicidal action against [%] SETVI ([7]; 20 g a.i./ha): 90%
Herbicidal action against [%] ECHCG ([8]; 20 g a.i./ha): 90%
Herbicidal action against [%] AMARE ([9]; 20 g a.i./ha): 90%
Herbicidal action against [%] PHBPU ([10]; 20 g a.i./ha): 80%
Herbicidal action against [%] DIGSA ([11]; 20 g a.i./ha): 90%
Herbicidal action against [%] ALOMY ([12]; 20 g a.i./ha): 90%

C=CCSCCOC(=O)C1C=CC(NC(=O)C2(C)CC(c3cc(F)cc(F)c3)=NO2)C1 (stereo not shown) [Example I-11]
Herbicidal action against [%] AVEFA ([1]; 20 g a.i./ha): 90%
Herbicidal action against [%] POLCO ([2]; 20 g a.i./ha): 90%
Herbicidal action against [%] MATIN [3]: 80%
Herbicidal action against [%] VERPE ([4]; 20 g a.i./ha): 90%
Herbicidal action against [%] LOLRI ([5]; 20 g a.i./ha): 100%
Herbicidal action against [%] ABUTH [6]: 90%
Herbicidal action against [%] SETVI ([7]; 20 g a.i./ha): 90%
Herbicidal action against [%] ECHCG ([8]; 20 g a.i./ha): 90%
Herbicidal action against [%] AMARE ([9]; 20 g a.i./ha): 90%
Herbicidal action against [%] PHBPU ([10]; 20 g a.i./ha): 80%
Herbicidal action against [%] DIGSA ([11]; 20 g a.i./ha): 90%
Herbicidal action against [%] ALOMY ([12]; 20 g a.i./ha): 100%

C=CC1(C(=O)NC2C=CC(C(=O)OCCSC)C2)CC(c2ccccc2)=NO1 (mixture of isomers) [Example I-48]
Herbicidal action against [%] AVEFA ([1]; 80 g a.i./ha): 90%
Herbicidal action against [%] VIOTR ([13]; 20 g a.i./ha): 90%
Herbicidal action against [%] VERPE ([4]; 20 g a.i./ha): 80%
Herbicidal action against [%] VERPE ([4]; 80 g a.i./ha): 90%
Herbicidal action against [%] STEME ([14]; 20 g a.i./ha): 90%
Herbicidal action against [%] STEME ([14]; 80 g a.i./ha): 90%
Herbicidal action against [%] LOLRI ([5]; 20 g a.i./ha): 80%
Herbicidal action against [%] LOLRI ([5]; 80 g a.i./ha): 90%
Herbicidal action against [%] SETVI ([7]; 20 g a.i./ha): 80%
Herbicidal action against [%] SETVI ([7]; 80 g a.i./ha): 80%
Herbicidal action against [%] ECHCG ([8]; 80 g a.i./ha): 80%
Herbicidal action against [%] HORMU ([15]; 80 g a.i./ha): 80%
Herbicidal action against [%] PHBPU ([10]; 80 g a.i./ha): 80%
Herbicidal action against [%] DIGSA ([11]; 20 g a.i./ha): 80%
Herbicidal action against [%] DIGSA ([11]; 80 g a.i./ha): 90%
Herbicidal action against [%] ALOMY ([12]; 80 g a.i./ha): 100%

CC(C)SCCOC(=O)C1C=CC(NC(=O)C2(C)CC(c3cc(F)cc(F)c3)=NO2)C1 (stereo not shown) [Example I-10]
Herbicidal action against [%] AVEFA ([1]; 20 g a.i./ha): 90%
Herbicidal action against [%] POLCO ([2]; 20 g a.i./ha): 90%
Herbicidal action against [%] MATIN [3]: 80%
Herbicidal action against [%] VERPE ([4]; 20 g a.i./ha): 90%
Herbicidal action against [%] LOLRI ([5]; 20 g a.i./ha): 100%
Herbicidal action against [%] ABUTH [6]: 90%
Herbicidal action against [%] SETVI ([7]; 20 g a.i./ha): 90%
Herbicidal action against [%] ECHCG ([8]; 20 g a.i./ha): 90%
Herbicidal action against [%] AMARE ([9]; 20 g a.i./ha): 90%
Herbicidal action against [%] PHBPU ([10]; 20 g a.i./ha): 80%
Herbicidal action against [%] DIGSA ([11]; 20 g a.i./ha): 90%
Herbicidal action against [%] ALOMY ([12]; 20 g a.i./ha): 100%

CSCCOC(=O)C1C=CC(NC(=O)C2(C3CC3)CC(c3cc(F)cc(F)c3)=NO2)C1 (stereo not shown) [Example I-30]
Herbicidal action against [%] AVEFA ([1]; 20 g a.i./ha): 90%
Herbicidal action against [%] AVEFA ([1]; 80 g a.i./ha): 90%
Herbicidal action against [%] POLCO ([2]; 80 g a.i./ha): 80%
Herbicidal action against [%] VIOTR ([13]; 80 g a.i./ha): 80%
Herbicidal action against [%] VERPE ([4]; 20 g a.i./ha): 80%
Herbicidal action against [%] VERPE ([4]; 80 g a.i./ha): 90%
Herbicidal action against [%] LOLRI ([5]; 20 g a.i./ha): 90%
Herbicidal action against [%] LOLRI ([5]; 80 g a.i./ha): 90%
Herbicidal action against [%] SETVI ([7]; 80 g a.i./ha): 80%
Herbicidal action against [%] AMARE ([9]; 80 g a.i./ha, visual rating about 3 weeks after treatment): 80%
Herbicidal action against [%] HORMU ([15]; 20 g a.i./ha): 90%
Herbicidal action against [%] HORMU ([15]; 80 g a.i./ha): 90%
Herbicidal action against [%] DIGSA ([11]; 20 g a.i./ha): 80%
Herbicidal action against [%] DIGSA ([11]; 80 g a.i./ha): 90%
Herbicidal action against [%] ALOMY ([12]; 80 g a.i./ha): 90%
